# US20130245116A1, “COMPOSITIONS AND METHODS FOR THE DISRUPTION OF MYCOBACTERIUM BIOFILM” (priority 2011, published 2013)
# Tested on: M. smegmatis mc^2155 biofilm
# Experiment: Assay for M. smegmatis biofilm inhibition (pellicle formation in M63 medium)
# Format: cell-based
# Experimental: Two ml of 7H9/ADC culture medium was inoculated with […] of a starter culture of M. smegmatis mc^2155 in 40% glycerol and incubated at 37° C. without shaking for 16-24 hr. This culture was transferred into 10 ml of GAS medium and incubated in the incubator/shaker at 37° C. to an absorbance at 650 nm of <1.5, diluted to an absorbance of 0.02-0.03 in M63 culture medium. Then aliquots of 2.0 ml of this inoculated M63 medium were placed in sterile 1.5×10-cm glass tubes and the purified compounds to be tested were added. The test tubes were incubated in the heat block at 37° C. for 3 to 7 days. Pellicles began to form at the air-liquid interface of control culture on day-2, the pellicle thickened and cells began climbing up the surface of the glass. Such pellicles are recognized as biofilm. In the biofilm inhibition assay, the purified compounds dissolved in CM (2:1) were added at zero time and the development of biofilm was recorded on day-3 and -4.
# In the biofilm inhibition assay, control culture began developing a smooth surface growth after two days and the cells began to climb up the wall of the tube. The surface growth continued and thickened over days-4 and -5. There was no observable submerged growth in the M63 medium over this period. […] After this period, rough surface pellicles began to appear along with some submerged growth (planktonic growth).
Substance,biological activity in M. smegmatis biofilm inhibition assay (concentration not given),concentration for complete inhibition of M. smegmatis biofilm formation [µg/mL]
"Trehalose monomycolate [TMM, reference compound]",not active,–
C16:3-fatty acyl-/C25-mycocerosyl-phthiotriol diester,–,12.5
